The results in this text go back to patent publication US8637470B2, “Small humanin-like peptides” (The Regents of the University of California, priority 2008, dated 2014).

Entries after “also recorded” stand apart in the source; their conditions may differ.

Experiment [1] concerns 22RV1 human prostate cancer cells. Put plainly: Apoptosis ELISA (fragmentation of histone-associated DNA) in 22RV1 cells. Type of experiment: cell-based. Particulars: for Protective effect of SHLP on apoptosis after stattic pre-treatment: 22RV1, 20 μM stattic (STAT3 inhibitor), 100 nM peptide; for Effect of SHLP on apoptosis after PD98059 pre-treatment: 22RV1, 25 μM PD98059 (ERK1/2 inhibitor); for Apoptosis (fragmentation of histone-associated DNA): 22RV1, serum starved 24 h, then 24 h with 100 μM peptide. As to the method: SHLPs are anti-apoptotic in 22RV1 prostate cancer cells and NIT-1 β-cells. […] Mouse NIT-1 insulinoma β-cells and 22RV1 human prostate cancer cells were serum starved for 24 h, followed by 24 h incubation with 100 nM scrambled control peptide, HN or SHLPs. Apoptosis was assessed and quantified by ELISA for fragmentation of histone-associated DNA.
ERK activation is necessary for SHLP-induced inhibition of apoptosis in NIT-1 and 22RV1 cells. To determine the significance of ERK activation for apoptosis inhibition by SHLPs 2 and 3, PD98059 (PD), a specific chemical inhibitor of ERK1/2, was utilized. 22RV1 and NIT-1 cells were serum starved for 24 h in the presence or absence of 25 μM PD or 1 μM wortmannin (PI3-kinase inhibitor; negative control), followed by 24 h incubation with […] scrambled control peptide, SHLP2 or SHLP3. Apoptosis was then assessed by ELISA for fragmentation of histone-associated DNA.
STAT3 Activation is also necessary for SHLP-induced cell survival in 22RV1 cells. Since SHLPs 2 and 3 both stimulate STAT3 phosphorylation in addition to ERK activation, the hypothesis that STAT3 activation occurs downstream of ERK1/2 was tested using a specific chemical inhibitor against STAT3, stattic. 22RV1 cells were incubated for 24 h in SF media in the presence or absence of 20 μM stattic followed by 24 h incubation with 100 nM scrambled control peptide, SHLP2 or SHLP3. Apoptosis was assessed by ELISA for fragmentation of histone-associated DNA. […]
(In general: In an ELISA, binding on a coated surface is turned into a signal by an enzyme label.)

Experiment [2] relates to murine 3T3-L1 fibroblasts. Put plainly: 3T3-L1 adipocyte differentiation (oil red-O staining). Particulars: 100 nM peptide with 10 nM insulin, 7 days. The format is cell-based. As to the method:
SHLPs 2 and 3 Stimulate Adipocyte Differentiation of 3T3-L1 Cells in vitro. […] We next assessed the ability of SHLP2, 3 and 6 to modulate the differentiation of 3T3-L1 adipocytes. Differentiation was induced in murine 3T3-L1 fibroblasts by incubation in 1 μM dexamethasone, 100 nM insulin, and 500 μM lisobutylmethyxanthine for 2 days, followed by incubation with 10 nM insulin in the presence of 100 nM scrambled peptide (control), SHLP2, SHLP3 or SHLP6 for 7 days. Differentiation was assessed by oil red-0 staining as a measure of oil droplet formation.

The next experiment deals with ERK. Briefly: ERK phosphorylation in NIT-1 cells (immunoblotting, ELISA). Type of experiment: cell-based, mouse. Particulars: NIT-1, 100 nM. On the procedure:
(§1) In addition to 22RV1, the effects of SHLPs on ERK and STAT3 phosphorylation were also studied in NIT-1 pancreatic β-cells. […] Indeed, the activation profile caused by SHLP3 in NIT-1 is remarkably similar to that stimulated by SHLP2 in 22RV1. When ERK activation was quantified by ELISA, a 6-fold and 9-fold activation was observed after 2 and 24 h, respectively, by SHLP2.

Another experiment concerns STAT3. Put plainly: STAT3 phosphorylation in NIT-1 cells (immunoblotting). The format is cell-based, mouse. Particulars: NIT-1, 100 nM. As to the method: as §1
(A western blot detects proteins with antibodies after separation by electrophoresis.)

The target of the next experiment is biotinylated-HN (Homo sapiens, UniProt Q8IVG9). Briefly: Dot-blot binding to biotinylated-HN. Particulars: 2, 5 or 10 nmol peptide dotted on nitrocellulose. On the procedure: To test a dimerization hypothesis, we performed a dot-blot using biotinylated-HN. Two, 5 or 10 nmol IGF-I (negative control), HN (positive control) or SHLP peptide were dotted on to nitrocellulose membrane, and their ability to bind to biotinylated-HN was assessed immunologically. […] Specific interactions that occur may be determined using, e.g., dot blots with biotinylated SHLPs, and/or antibodies against specific SHLPs.
Chain of biotinylated-HN (Q8IVG9 whole entry): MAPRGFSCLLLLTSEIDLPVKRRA

A further experiment relates to HAEC'S. Briefly: Intracellular ROS production (DHE fluorescence) in HAEC. The format is cell-based. Particulars: 0.1 nM peptide over night, oxidized LDL 100 μg protein/ml 30 min. On the procedure:
SHLPs suppress intracellular production of Reactive Oxygen Species (ROS). ROS production was monitored by following the conversion of the oxidant-sensitive dye dihydroethidine to the fluorescent ethidium (DHE) for measuring the cellular ability to produce Reactive Oxygen Species. HAEC'S plated on glass cover slips were incubated over night with 0.1 nM SHLP2 or SHLP6 versus regular cultured medium. For ROS measurement, cells were incubated for 30 min with 10 μM DHE in HBSS containing calcium magnesium and glucose at 37° c. Then cells were treated with Oxidized LDL 100 μg protein/ml for 30 minutes at 37° c. Samples were imaged under fluorescence microscope with a Texas Red filter corresponding to the fluorescence of DHE. Average fluorescence intensity was used to evaluate the changes of intracellular ROS generation, results are expressed in relative fluorescence unit (RFU) representing average intensity per cell area.

“MGVKFFTLSTRFFPSVQRAVPLWTNS [SHLP2, small humanin-like peptide, mtDNA 2092-2170]”: the “SHLP-induced cell survival after wortmannin pre-treatment” value in experiment [1] (22RV1, 1 μM wortmannin (PI3-kinase inhibitor)) is given as “inhibited SHLP2-induced cell survival”. Besides, in experiment [1], the “Protective effect of SHLP on apoptosis after stattic pre-treatment” value is “abrogated the protective effects”, the “Effect of SHLP on apoptosis after PD98059 pre-treatment” value was “abrogated” and the “Apoptosis (fragmentation of histone-associated DNA)” value is listed as “significantly inhibited”. For the same sequence, the “Adipocyte differentiation (oil red-O staining)” value in experiment [2] is “strikingly induced adipocyte differentiation; also recorded: stimulate 3T3-L1 adipocyte differentiation”. In addition, the “ERK phosphorylation profile (immunoblotting)” value in the experiment on ERK is “detected within 30 min”. For the same sequence, the “ERK activation (ELISA)” value with ERK (after 2 h) came out at 6 fold. Moreover, the “ERK activation (ELISA)” value in the experiment with ERK (after 24 h) worked out at 9 fold. Also, the “STAT3 activation/phosphorylation (immunoblotting)” value in the experiment with STAT3 was “temporally similar to the timing of ERK activation”. Also, the “Binding to biotinylated-HN (dot-blot)” value with biotinylated-HN was “weak interaction; also recorded: binds”. The “Intracellular ROS production (DHE fluorescence)” value with HAEC'S was “suppresses ROS production; also recorded: suppresses production of reactive oxygen species”.
As to “MLGYNFSSFPCGTISIAPGFNFYRLYFIWVNGLAKVVW [SHLP3, small humanin-like peptide, mtDNA 1707-1821]”, in experiment [1], the “Protective effect of SHLP on apoptosis after stattic pre-treatment” value is “abrogated the protective effects”, the “Effect of SHLP on apoptosis after PD98059 pre-treatment” value is recorded as “abrogated” and the “Apoptosis (fragmentation of histone-associated DNA)” value is listed as “significantly inhibited”. In addition, in experiment [2], the “Adipocyte differentiation (oil red-O staining)” value was “strikingly induced adipocyte differentiation; also recorded: stimulate 3T3-L1 adipocyte differentiation”. Besides, the “ERK phosphorylation profile (immunoblotting)” value with ERK was “more delayed response”. In addition, the “ERK activation (ELISA)” value with ERK (after 2 h) is listed as “no detectable increase”. Further, the “ERK activation (ELISA)” value in the experiment on ERK (after 24 h) is 15 fold. Also, the “STAT3 activation/phosphorylation (immunoblotting)” value with STAT3 was “only slightly stimulate”.
